# Test results: patent publication US20160326165A1, “ALKOXYCARBONYL HEMIACETAL-TYPE ESTER PRODRUG OF PYRIDONE CARBOXYLIC ACID ANTIBACTERIAL DRUG” (KINKI UNIVERSITY, priority 2013, published 2016)
# Assays:
# [1] = Rat intestinal everted sac method: intestinal absorption and hydrolysis to LVFX, alone or with AlCl3; type: in vitro ADME; conditions: for LVFX concentration generated within the small intestine lumen from the ester alone versus LVFX alone / influence of simultaneous administration of AlCl3 on LVFX generated: incubation 60 minutes; for hydrolysis into LVFX: incubation for 60 minutes, small intestine; for drug substance LVFX as a hydrolysis product in the everted intestinal tract: ester
# Procedure: 1. Glucose 200 mg was dissolved in 100 ml of 20 mM HEPES buffer isotonic sodium chloride solution, and pH is regulated at 7.4 with 5N- or 1N-sodium hydroxide by measuring pH (If pH rises, pH is modulated with 1N-hydrochloric acid.).
# 1. Similarly in the case of independent administration, glucose 200 mg is dissolved in 100 ml of 20 mM HEPES buffer isotonic sodium chloride solution, and pH is regulated at 7.4 with 5N- or 1N-sodium hydroxide by measuring pH (If pH rises, pH is modulated with 1N-hydrochloric acid.).
# 2. AlCl3 8.0 mg is dissolved (600 μM).
# 1. A SD type male rat of 8-week old after the birth is purchased and undergoes quarantine habituation for two days. After fasting for 24 hours, a pentobarbital sodium (50 mg/ml) is injected intraperitoneally in the amount (ml) of: rat weight (g)×0.05/50 (that is, weight (g)×0.001).
# 2. After the rat sleeps completely, it is incised in the abdomen so as to be observed from the stomach till the bladder, and the intestinal tract is removed from the end of the duodenum to the front 5 cm of the cecum.
# 3. The intestinal tract is cut off every 10 cm carefully, and all portions are washed with physiological saline (both circumference and inside of intestinal).
# 4. The intestinal tract is made reversed from the stomach side using a stainless steel tube.
# 5. The cecum side of the reversed intestinal tract is tied with sutures to make bag-shaped.
# 6. One (1) ml of the HEPES buffer isotonic sodium chloride solution adjusted is put in from the stomach side of the intestinal tract, and the intestinal tract is tied with a suture.
# 7. The tied intestinal tract is put in the HEPES buffer isotonic sodium chloride solution cooled upon ice, and is preserved.
# 2. One (1) ml of the drug solution is taken, and it is diluted with 9 ml of the HEPES buffer isotonic sodium chloride solution 10 times (2 mM).
# 3. A portion (5 ml) of the solution is further diluted with 95 ml of the HEPES buffer isotonic sodium chloride solution to 20 times (100 μM).
# 1. Thirty (30) ml of the diluted drug solution is taken to a 50-ml Erlenmeyer flask, and the intestinal tract containing a HEPES buffer isotonic sodium chloride solution is put in.
# 2. […]
# 3. The intestinal tract is taken out from the drug solution, and, after flushing and wiping off the drug solution attached to the surroundings of the intestinal tract with the physiological saline, all liquid in the intestinal tract is taken out into the Eppendorf tube.
# 4. The liquid is centrifuged for 5 minutes at 12,000 rpm.
# 5. 250 μL of a supernatant liquid is taken as a sample.
# The method is the same as the HPLC measurement conditions mentioned above in-vivo experiment.
# [2] = Blood concentration and AUC of LVFX after oral administration to rats, alone or with a metal-containing preparation; conditions: for blood concentration of LVFX after independent administration of the ester versus independent administration of LVFX / blood concentration of LVFX under concomitant use of polyvalent metal-containing antacid: 0-240 minutes
# Procedure: A cannulation inner tube (Fuji Systems Corporation Ltd., Tokyo) having an internal diameter of 0.5 mm and an outside diameter of 1.0 mm which is used for blood collecting was inserted in the jugular vein of rats on the preceding day before the administration experiment, and the rats were made to abstain from food for 20 hours in an environment where only water can be taken in the animal room.
# The polyvalent metal-containing preparation Al(OH)3 was administered in a dose of 30 mg/kg subject.
# After administration of the drug, a blood sample was collected through a jugular vein cannulation inner tube in an amount of 200 μL each along the time elapsed (after 0, 15, 30, 45, 60, 90, 120, 180, and 240 minutes) in a 1-mL syringe treated with heparin, the blood was centrifuged for 5 minutes at 12,000 rpm and 4 deg C immediately, and 50 μL of a supernatant was taken to make plasma.
# The following procedures were carried out successively: addition of 100 μL of methanol solution containing 10 μmol/L of CPFX as an internal standard substance to 50 μL of plasma, then stirring; centrifuging for 5 minutes at 6,200 rpm; sampling 100 μL of the supernatant with a syringe; filtering the sample solution using Millex (registered trademark)-HV (0.45 micrometer, MILLIPORE, Billerica, Mass., USA). […] The HPLC measurement conditions were as follows; the column used: TSK-GEL ODS-80 Ts (250×4.6 mm, TOSOH Corp., Tokyo), the mobile phase used: 20-mm sodium-phosphate buffer solution (pH 3.0)/acetonitrile=79:21 (v/v). The measurement was carried out using Shimazu SPD-20A Spectrometer detector (Shimadzu, Kyoto) with 280 nm detection wavelength, and flow rate was 1.0 mL/min. The retention times obtained by these conditions were 6.9 minutes for ENX, and 7.2 minutes for CPFX.
# The differences of AUCs between 4 groups were computed by performing the multiple comparison by Dunnett's method, and the range of p<0.05 was understood as having a statistical significance.
# [3] = tested on: Pseudomonas-aeruginosa ATCC 27853; test: MIC (minimum inhibitory concentration) against Pseudomonas-aeruginosa ATCC 27853; type: cell-based
# From the text: (§1) The MIC activity unit in the table is μg/mL.
# [4] = tested on: Escherichia coli ATCC 25922; test: MIC against Escherichia coli ATCC 25922; type: cell-based; conditions: ATCC25922
# From the text: as §1
# Escherichia coli NIH JC2 = test: MIC against Escherichia coli NIH JC2; type: cell-based; conditions: NIHJC2
# From the text: as §1
# Enterobacter ATCC 23355 = test: MIC against Enterobacter ATCC 23355; type: cell-based; conditions: ATCC23355
# From the text: as §1
# [5] = tested on: Pseudomonas-aeruginosa (ATCC27853), Escherichia coli (ATCC25922 and NIH JC2), and Enterobacter (ZTCC23355); test: Comparison of antibacterial activities of LVFX and LVFX-EHE over all tested strains; type: cell-based; conditions: all four strains of Table 11
LVFX concentration generated within the small intestine lumen from the ester alone versus LVFX alone [1],influence of simultaneous administration of AlCl3 on LVFX generated [1],hydrolysis into LVFX [1],AUC of LVFX in blood on co-administration with the metal-containing preparation versus LVFX independent administration [2],blood concentration of LVFX under concomitant use of polyvalent metal-containing antacid [2],MIC [3] [µg/mL],MIC [4] [µg/mL],MIC (Escherichia coli NIH JC2) [µg/mL],MIC (Enterobacter ATCC 23355) [µg/mL],absorption amount with AlCl3 as percent of LVFX administration alone ([1]; LVFX and AlCl3 concomitantly),MIC values considered from clinical break points [5],SMILES,blood concentration of LVFX after independent administration of the ester versus independent administration of LVFX [2],antibacterial activity as compared to that of LVFX ([5]; ratio to LVFX),drug substance LVFX as a hydrolysis product in the everted intestinal tract ([1]; concomitant administration with aluminum chloride),drug substance LVFX as a hydrolysis product in the everted intestinal tract ([1]; independent administration alone),peak of LVFX in blood derived from the ester ([2]; ester administered alone),peak of LVFX in blood derived from the ester ([2]; ester co-administered with Al(OH)3 30 mg/kg)
no significant difference,no influence,completely hydrolyzed,no significant difference,not influenced,,,,,,,"CC(C)OC(=O)OC(C)OC(=O)c1cn2c3c(c(N4CCN(C)CC4)c(F)cc3c1=O)OC[C@@H]2C (mixture of isomers) [LVFX-iPrHE, Levofloxacin isopropoxycarbonyl 1-ethyl hemiacetal-type ester]",A significant difference was not found,,,,,
,,,,,0.5,≤ 0.065,≤ 0.065,≤ 0.065,about 54%,,"C[C@H]1COc2c(N3CCN(C)CC3)c(F)cc3c(=O)c(C(=O)O)cn1c23 [LVFX, (3S)-9-fluoro-3-methyl-10-(4-methyl-1-piperazinyl)-7-oxo-2,3-dihydro-7H-pyrid [1,2,3-de] [1,4] benzoxazine-6-carboxylic acid, reference compound]",,,,,,
no significant difference,no influence,completely hydrolyzed,no significant difference,not influenced,8,0.5,0.5,2,,non-sensitive to any bacterial strains,"CCOC(=O)OC(C)OC(=O)c1cn2c3c(c(N4CCN(C)CC4)c(F)cc3c1=O)OC[C@@H]2C (stereo partly drawn) [LVFX-EHE, Levofloxacin ethoxycarbonyl-1-ethyl hemiacetal-type ester]",Significant differences were not observed,1/10,,,,
,,,,,,,,,,,"COC(=O)c1cn2c3c(c(N4CCN(C)CC4)c(F)cc3c1=O)OC[C@@H]2C [LVFX-M, (S)-Methyl-9-fluoro-3-methyl-10-(4-methylpiperazine-1-yl)-7-oxo-3,7-dihydro-2H-[1,4] oxazolino [2,3,4-ij] quinolin-6-carboxylate, reference compound]",,,not detected,not detected,no peak was detected,no peak was detected
